# Source: US20260216294A1, “BETA 2-ADRENERGIC RECEPTOR AGONISTS FOR TREATMENT OR PREVENTION OF MUSCLE WASTING” (ATROGI AB, priority 2023, published 2026)
# What was measured:
# L6-myotubes [1] = assay: Glucose uptake in differentiated L6-myotubes (Biological Example 2); format: cell-based; conditions: for Emax at 10 µM: read-out: Biological example 2 (GU)
# How it was run: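 Uptake was quantified as radioactivity in 0.2 M NaOH lysates after a 10 min pulse of 50 nM ^3H-2-deoxyglucose. The pulse followed two agonist exposures at 1×10^−5 M final (isoprenaline or test compound): 1 h 40 min, then 20 min in glucose-free medium after washing. L6 myotubes had been starved overnight in medium with 0.5% fatty-acid-free BSA.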
# L6-myotubes [2] = assay: Measurement of intracellular cAMP levels in differentiated L6-myotubes (Biological Example 3); format: cell-based; conditions: 0.25 h
# How it was run: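 Intracellular cAMP quantified by AlphaScreen after ethanol extraction and lysis of L6 myotubes. Cells were serum-starved overnight, then exposed for 15 min to compound (final 1×10^−5 M) or isoprenaline in IBMX-containing (1 mM) HBSS buffer, pH 7.4.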
# [3] = glucose uptake in differentiated L6-myotubes, compound at 10 μM, activity relative to isoproterenol at 10 μM
# [4] = intracellular cAMP in differentiated L6-myotubes, compound at 10 μM, activity relative to isoproterenol at 10 μM
# [5] = glucose uptake, compound at 10 μM relative to isoproterenol at 10 μM
# [6] = intracellular cAMP, compound at 10 μM relative to isoproterenol at 10 μM
SMILES,Emax at 10 µM (L6-myotubes [1]; [3]),Emax at 10 µM (L6-myotubes [2]; [4]),Emax at 10 µM (L6-myotubes [1]; [5]),Emax at 10 µM (L6-myotubes [2]; [6]),Biological example 2 (GU) (L6-myotubes [1]; [5])
CC(C)(C[C@H]1CC[C@@H](N)CC1)NC[C@H](O)c1cncc(F)c1 [Compound 466],50 to 75%,< 25%,–,–,–
"COc1ccc(C[C@@]2(C)CC[C@H]([C@H](O)c3cccc(F)c3)N2)cc1 [Compound 366, (R)-{(2R,5R)-5-[(p-methoxyphenyl)methyl]-5-methyl-2-pyrrolidinyl}(m-fluorophenyl)methanol]",> 75%,25 to 50%,–,–,–
"O[C@H](c1cccc(F)c1)C12CCC(CCCc3ccccc3)(CC1)N2 [Compound 536, (R)-(m-fluorophenyl){4-(3-phenylpropyl)-7-azabicyclo[[2.2.1]]hept-1-yl}methanol]",> 75%,25 to 50%,–,–,–
"CO[C@H]1CC[C@H](C[C@H]2CC[C@H]([C@@H](O)c3cccc(F)c3)N2)CC1 [Compound 334, (S)-[(2R,5R)-5-{[(1r,4R)-4-methoxycyclohexyl]methyl}-2-pyrrolidinyl] (m-fluorophenyl)methanol]",25 to 50%,< 25%,–,–,–
"O[C@@H](CNCC[C@H]1CC[C@@H](O)CC1)c1cncc(F)c1 [Compound 293, (R)-1-(5-fluoro-3-pyridyl)-2-{2-[(1s,4S)-4-hydroxycyclohexyl]ethylamino}-1-ethanol]",25 to 50%,< 25%,–,–,–
"CCC[C@H]1CCC[C@H]([C@H](O)c2cccc(O)c2)N1 [Compound 64, (R)-[(2R,6S)-6-propyl-2-piperidyl](m-hydroxyphenyl)methanol]",–,–,> 75%,< 25%,–
CCC[C@H]1CCC[C@@H]([C@@H](O)c2cccc(O)c2)N1 [Compound 121],–,–,> 75%,< 25%,–
CC(=O)N[C@H]1CC[C@H](C[C@@H]2CC[C@H]([C@H](O)c3cccc(F)c3)N2)CC1 [Compound 485],50 to 75%,< 25%,–,–,–
CCC[C@H]1CCC[C@H]([C@H](O)c2cncc(F)c2)N1 [Compound 140],–,–,< 25%,< 25%,–
"Oc1ccc(C(O)CNCCC2CCCCC2)cc1 (centres unmarked) [Compound 16, 2-(2-cyclohexylethylamino)-1-(p-hydroxyphenyl)-1-ethanol]",–,–,25 to 50%,< 25%,–
CCC[C@H]1CCC[C@H]([C@H](O)c2ccc(F)cc2)N1 [Compound 92],–,–,25 to 50%,< 25%,–
"CCC[C@H]1CC[C@@H]([C@H](O)c2cccc(F)c2)N1 [Compound 130, (R)-[(2S,5S)-5-propyl-2-pyrrolidinyl](m-fluorophenyl)methanol]",–,–,25 to 50%,< 25%,–
"CC(C)(C)NC[C@H](O)c1ccc(Cl)cn1 [Compound 147, (S)-2-(tert-butylamino)-1-(5-chloro-2-pyridyl)-1-ethanol]",–,–,25 to 50%,< 25%,–
CC(=O)N[C@H]1CC[C@H](CC(C)(C)NC[C@H](O)c2cncc(F)c2)CC1 [Compound 357],> 75%,< 25%,–,–,–
"CCCC(C)NCC(O)c1ccc(O)cc1 (centres unmarked) [Compound 8, 1-(p-hydroxyphenyl)-2-(1-methylbutylamino)-1-ethanol]",–,–,50 to 75%,25 to 50%,–
"CC(C)(C)NC[C@H](O)c1cncc(F)c1 [Compound 99, (R)-2-(tert-butylamino)-1-(5-fluoro-3-pyridyl)-1-ethanol]",–,–,> 75%,25 to 50%,–
O=C(N[C@H]1CC[C@@H](CNC[C@H](O)c2cccc(F)c2)CC1)c1ccccc1 [Compound 316],50 to 75%,< 25%,–,–,–
CCC[C@H](C)NC[C@H](O)c1cccc(F)c1 [Compound 51],–,–,> 75%,< 25%,–
"CCC[C@@H]1CC[C@H]([C@H](O)c2cncc(F)c2)N1 [Compound 160, (R)-[(2R,5R)-5-propyl-2-pyrrolidinyl](5-fluoro-3-pyridyl)methanol]",–,–,–,< 25%,"+++ (If a compound at 10 μM shows activity of more than 75% of that of isoproterenol at 10 μM, the activity is denoted with +++)"
